Measurements from ChEMBL document CHEMBL3885861, “Open TG-GATES”.

Organism: Rattus norvegicus
Experiment: Open TG-GATES - Regimen: Daily Repeat
Assay type: toxicity, organism-based, Sprague-Dawley
Parameters: regimen Daily Repeat, gender Male, age 6 weeks
Conditions: in vivo, po, route gavage; for Bas / Eos / Fbg / Hb / Ht / Lym / MCHC / Mono / Neu / Plat / RBC / Ret / WBC / PT / MCV: tissue Blood; for KIDNEY_L / KIDNEY_R / KIDNEY_TOTAL: tissue Kidney; for LIVER: tissue Liver; for ALP / ALT / AST / CRE / DBIL / IP / K / LDH / Na / PL / RALB / TBIL / TC / TG / TP / gamma-GTP / BUN / Ca: tissue Plasma
[1] = 0 mg/kg, 72 h, dose level Control, time 3 day
[2] = 0 mg/kg, […], dose level Control, time 7 day
[3] = 0 mg/kg, […], dose level Control, time 14 day
[4] = 0 mg/kg, […], dose level Control, time 28 day
[5] = 40 mg/kg, 72 h, dose level Low, time 3 day
[6] = 40 mg/kg, […], dose level Low, time 7 day
[7] = 40 mg/kg, […], dose level Low, time 14 day
[8] = 40 mg/kg, […], dose level Low, time 28 day
[9] = 120 mg/kg, 72 h, dose level Middle, time 3 day

Structure (SMILES): CCC(C)(C)C(=O)O[C@H]1C[C@@H](C)C=C2C=C[C@H](C)[C@H](CC[C@@H]3C[C@@H](O)CC(=O)O3)[C@H]21 [SIMVASTATIN]
- TERMINAL_BW [1]: 222.3 g
- Bas [1]: 0%
- Eos [1]: 1%
- Fbg [1]: 227 mg/dL
- Hb [1]: 13.3 g/dL
- Ht [1]: 40%
- Lym [1]: 78.8%
- MCHC [1]: 33.1%
- Mono [1]: 8.8%
- Neu [1]: 11.8%
- Plat [1]: 121.1 x10_4/uL
- RBC [1]: 621.6 x10_4/ul
- Ret [1]: 6.5%
- WBC [1]: 98.2 x10_2/uL
- KIDNEY_L [1]: 1 g
- KIDNEY_R [1]: 1 g
- KIDNEY_TOTAL [1]: 2 g
- LIVER [1]: 11 g
- ALP [1]: 820.2 IU/L
- ALT [1]: 36.6 IU/L
- AST [1]: 58.8 IU/L
- CRE [1]: 0.6 mg/dL
- DBIL [1]: 0.004 mg/dL
- IP [1]: 7.8 mg/dL
- K [1]: 4.6 meq/L
- LDH [1]: 81 IU/L
- Na [1]: 140.2 meq/L
- PL [1]: 143.4 mg/dL
- RALB [1]: 3.8 g/dL
- TBIL [1]: 0.3 mg/dL
- TC [1]: 82.2 mg/dL
- TG [1]: 75.6 mg/dL
- TP [1]: 5.6 g/dL
- gamma-GTP [1]: 1.8 IU/L
- TERMINAL_BW [2]: 253.4 g
- TERMINAL_BW [3]: 301 g
- TERMINAL_BW [4]: 380.8 g
- Bas [2]: 0%
- Eos [2]: 0.8%
- Fbg [2]: 217.4 mg/dL
- Hb [2]: 12.8 g/dL
- Ht [2]: 38.8%
- Lym [2]: 78.6%
- MCHC [2]: 33%
- Mono [2]: 8.8%
- Neu [2]: 12%
- PT [2]: 10.9 s
- Plat [2]: 115.6 x10_4/uL
- RBC [2]: 606.2 x10_4/ul
- Ret [2]: 3.8%
- WBC [2]: 108.7 x10_2/uL
- Bas [3]: 0%
- Eos [3]: 1%
- Fbg [3]: 222.4 mg/dL
- Hb [3]: 13.9 g/dL
- Ht [3]: 41.7%
- Lym [3]: 78.4%
- MCHC [3]: 33.2%
- Mono [3]: 7%
- Neu [3]: 13.8%
- Plat [3]: 123.4 x10_4/uL
- RBC [3]: 674.8 x10_4/ul
- Ret [3]: 6.2%
- WBC [3]: 122.2 x10_2/uL
- Bas [4]: 0%
- Eos [4]: 1%
- Fbg [4]: 227.8 mg/dL
- Hb [4]: 14.5 g/dL
- Ht [4]: 43.6%
- Lym [4]: 85.6%
- MCHC [4]: 33.3%
- MCV [4]: 57.8 fL
- Mono [4]: 4.8%
- Neu [4]: 8.6%
- PT [4]: 11.7 s
- Plat [4]: 120.4 x10_4/uL
- RBC [4]: 753.6 x10_4/ul
- Ret [4]: 3%
- WBC [4]: 132.7 x10_2/uL
- KIDNEY_L [2]: 1.1 g
- KIDNEY_R [2]: 1.1 g
- KIDNEY_TOTAL [2]: 2.2 g
- KIDNEY_L [3]: 1.2 g
- KIDNEY_R [3]: 1.3 g
- KIDNEY_TOTAL [3]: 2.5 g
- KIDNEY_L [4]: 1.4 g
- KIDNEY_R [4]: 1.4 g
- KIDNEY_TOTAL [4]: 2.8 g
- LIVER [2]: 12.2 g
- LIVER [3]: 14 g
- LIVER [4]: 15.9 g
- ALP [2]: 953 IU/L
- ALT [2]: 34.4 IU/L
- AST [2]: 63.4 IU/L
- CRE [2]: 0.7 mg/dL
- DBIL [2]: 0.012 mg/dL
- IP [2]: 7.1 mg/dL
- K [2]: 4.7 meq/L
- LDH [2]: 81.6 IU/L
- Na [2]: 142.4 meq/L
- PL [2]: 152.4 mg/dL
- RALB [2]: 3.8 g/dL
- TBIL [2]: 0.3 mg/dL
- TC [2]: 78.6 mg/dL
- TP [2]: 5.7 g/dL
- gamma-GTP [2]: 1.2 IU/L
- ALP [3]: 777.2 IU/L
- ALT [3]: 34.6 IU/L
- AST [3]: 64.2 IU/L
- BUN [3]: 20.6 mg/dL
- CRE [3]: 0.6 mg/dL
- DBIL [3]: 0.016 mg/dL
- IP [3]: 7 mg/dL
- K [3]: 4.5 meq/L
- LDH [3]: 74.6 IU/L
- Na [3]: 140.6 meq/L
- PL [3]: 154.4 mg/dL
- RALB [3]: 3.8 g/dL
- TBIL [3]: 0.3 mg/dL
- TC [3]: 73.6 mg/dL
- TG [3]: 115.8 mg/dL
- TP [3]: 5.9 g/dL
- gamma-GTP [3]: 1.4 IU/L
- ALP [4]: 672 IU/L
- ALT [4]: 31.8 IU/L
- AST [4]: 57.6 IU/L
- BUN [4]: 20 mg/dL
- CRE [4]: 0.7 mg/dL
- DBIL [4]: 0.016 mg/dL
- IP [4]: 5.9 mg/dL
- K [4]: 4.3 meq/L
- LDH [4]: 76.6 IU/L
- Na [4]: 142.6 meq/L
- PL [4]: 147.8 mg/dL
- RALB [4]: 3.9 g/dL
- TBIL [4]: 0.3 mg/dL
- TC [4]: 66 mg/dL
- TG [4]: 151.4 mg/dL
- TP [4]: 6.1 g/dL
- gamma-GTP [4]: 1.6 IU/L
- TERMINAL_BW [5]: 221.3 g
- Bas [5]: 0%
- Eos [5]: 1%
- Fbg [5]: 222.8 mg/dL
- Hb [5]: 13.6 g/dL
- Ht [5]: 41.1%
- Lym [5]: 77%
- MCHC [5]: 33.2%
- Mono [5]: 8.6%
- Neu [5]: 13.6%
- Plat [5]: 125.7 x10_4/uL
- RBC [5]: 639.6 x10_4/ul
- Ret [5]: 5.1%
- WBC [5]: 97.1 x10_2/uL
- KIDNEY_L [5]: 0.9 g
- KIDNEY_R [5]: 1 g
- KIDNEY_TOTAL [5]: 1.9 g
- ALP [5]: 959.2 IU/L
- ALT [5]: 40.6 IU/L
- AST [5]: 67 IU/L
- BUN [5]: 18 mg/dL
- CRE [5]: 0.5 mg/dL
- DBIL [5]: 0.004 mg/dL
- IP [5]: 7.1 mg/dL
- K [5]: 4.4 meq/L
- LDH [5]: 102.4 IU/L
- Na [5]: 140 meq/L
- PL [5]: 148.4 mg/dL
- RALB [5]: 3.8 g/dL
- TBIL [5]: 0.3 mg/dL
- TC [5]: 88.2 mg/dL
- TG [5]: 69.6 mg/dL
- TP [5]: 5.6 g/dL
- gamma-GTP [5]: 1.8 IU/L
- TERMINAL_BW [6]: 254.5 g
- TERMINAL_BW [7]: 301.6 g
- TERMINAL_BW [8]: 380.4 g
- Bas [6]: 0%
- Eos [6]: 0.6%
- Fbg [6]: 232.4 mg/dL
- Hb [6]: 13.3 g/dL
- Ht [6]: 39.9%
- Lym [6]: 83%
- MCHC [6]: 33.2%
- Mono [6]: 6%
- PT [6]: 11 s
- Plat [6]: 120.4 x10_4/uL
- RBC [6]: 619.6 x10_4/ul
- Ret [6]: 4.2%
- WBC [6]: 123 x10_2/uL
- Bas [7]: 0%
- Eos [7]: 0.6%
- Fbg [7]: 219.4 mg/dL
- Hb [7]: 13.9 g/dL
- Ht [7]: 41.7%
- Lym [7]: 81.6%
- MCHC [7]: 33.3%
- Mono [7]: 5.6%
- Neu [7]: 12.4%
- Plat [7]: 119.7 x10_4/uL
- RBC [7]: 675.8 x10_4/ul
- Ret [7]: 5.3%
- WBC [7]: 121.7 x10_2/uL
- Bas [8]: 0%
- Eos [8]: 1.2%
- Fbg [8]: 244.4 mg/dL
- Hb [8]: 14.8 g/dL
- Ht [8]: 44.7%
- Lym [8]: 81%
- MCHC [8]: 33%
- MCV [8]: 58.3 fL
- Mono [8]: 6.4%
- Neu [8]: 11.6%
- Plat [8]: 111 x10_4/uL
- RBC [8]: 766.6 x10_4/ul
- Ret [8]: 2.3%
- WBC [8]: 112.3 x10_2/uL
- KIDNEY_L [6]: 1.1 g
- KIDNEY_R [6]: 1.1 g
- KIDNEY_TOTAL [6]: 2.2 g
- KIDNEY_L [7]: 1.2 g
- KIDNEY_R [7]: 1.2 g
- KIDNEY_TOTAL [7]: 2.4 g
- KIDNEY_L [8]: 1.4 g
- KIDNEY_R [8]: 1.4 g
- KIDNEY_TOTAL [8]: 2.8 g
- LIVER [6]: 12.5 g
- LIVER [7]: 13.6 g
- LIVER [8]: 16.5 g
- ALP [6]: 877.6 IU/L
- ALT [6]: 38.4 IU/L
- AST [6]: 60.8 IU/L
- BUN [6]: 20.6 mg/dL
- CRE [6]: 0.6 mg/dL
- Ca [6]: 11 mg/dL
- DBIL [6]: 0 mg/dL
- IP [6]: 6.9 mg/dL
- K [6]: 4.9 meq/L
- LDH [6]: 112.2 IU/L
- Na [6]: 141.4 meq/L
- PL [6]: 155 mg/dL
- RALB [6]: 3.8 g/dL
- TBIL [6]: 0.3 mg/dL
- TG [6]: 99.2 mg/dL
- TP [6]: 5.9 g/dL
- gamma-GTP [6]: 1.8 IU/L
- ALP [7]: 819.8 IU/L
- ALT [7]: 37 IU/L
- AST [7]: 61.4 IU/L
- BUN [7]: 20 mg/dL
- CRE [7]: 0.6 mg/dL
- Ca [7]: 10.8 mg/dL
- DBIL [7]: 0.006 mg/dL
- IP [7]: 7.1 mg/dL
- K [7]: 4.7 meq/L
- LDH [7]: 82 IU/L
- Na [7]: 140.8 meq/L
- PL [7]: 145.6 mg/dL
- RALB [7]: 3.9 g/dL
- TBIL [7]: 0.3 mg/dL
- TC [7]: 76.6 mg/dL
- TG [7]: 118.4 mg/dL
- TP [7]: 5.9 g/dL
- gamma-GTP [7]: 1.8 IU/L
- ALP [8]: 751.6 IU/L
- ALT [8]: 34.2 IU/L
- AST [8]: 60.4 IU/L
- BUN [8]: 20.6 mg/dL
- CRE [8]: 0.7 mg/dL
- DBIL [8]: 0.024 mg/dL
- IP [8]: 6.8 mg/dL
- K [8]: 4.3 meq/L
- LDH [8]: 113.6 IU/L
- Na [8]: 143.2 meq/L
- PL [8]: 163 mg/dL
- RALB [8]: 4 g/dL
- TBIL [8]: 0.3 mg/dL
- TC [8]: 78.2 mg/dL
- TG [8]: 165.2 mg/dL
- TP [8]: 6.2 g/dL
- gamma-GTP [8]: 1.4 IU/L
- TERMINAL_BW [9]: 215.2 g
- Bas [9]: 0%
- Eos [9]: 1%
- Fbg [9]: 217.2 mg/dL
- Hb [9]: 13.6 g/dL
